Measurements published in US20050049245A1, “Heteroaryl-ethanolamine derivatives as antiviral agents” (priority 2002, published 2005).
Where two headings read alike, the source gives them in different places.

How the values were obtained:
VZV polymerase = VZV polymerase (Varicella-zoster virus, UniProt P09252); test: VZV polymerase assay (Table 1); assay type: biochemical; conditions: VZV polymerase; read-out: Polymerase IC50 VZV
HSV polymerase = HSV polymerase (Human herpesvirus 1, UniProt P04293); test: HSV polymerase assay (Table 1); assay type: biochemical; conditions: HSV polymerase; read-out: Polymerase IC50 HSV
HCMV polymerase = target: T1, HCMV polymerase (Human cytomegalovirus, UniProt P08546); test: HCMV polymerase scintillation proximity assay (SPA); assay type: biochemical
T1 construct: made in house; host or cells: recombinant baculovirus-infected SF-9 cells
Experimental: The HCMV polymerase assay is performed using a scintillation proximity assay (SPA) as described in several references, such as N. D. Cook, et al., Pharmaceutical Manufacturing International, pages 49-53 (1992); KY Takeuchi, Laboratory Practice, September issue (1992); U.S. Pat. No. 4,568,649 (1986); which are incorporated by reference herein. Reactions are performed in 96-well plates. The assay is conducted in 100 yl volume with 5.4 mM HEPES (pH 7.5), 11.7 mM KCl, 4.5 mM MgCl2, 0.36 mg/ml BSA, and 90 nM ^3H-dTTP. Assays are run with and without CHAPS, (3-[(3-Cholamidopropyl)-dimethylammonio]-1-propane-sulfonate) at a final concentration of 2 mM. HCMV polymerase is diluted in enzyme dilution buffer containing 50% glycerol, 250 mM NaCl, 10 mM HEPES (pH 7.5), 100 μg/ml BSA, and 0.01% sodium azide. The HCMV polymerase, which is expressed in recombinant baculovirus-infected SF-9 cells and purified according to literature procedures, is added at 10% (or 10 μl) of the final reaction volume, i.e., 100 μl. Compounds are diluted in 50% DMSO and 10 μl are added to each well. Control wells contain an equivalent concentration of DMSO. Unless noted otherwise, reactions are initiated via the addition of 6 nM biotinylated poly(dA)-oligo(dT) template/primer to reaction mixtures containing the enzyme, substrate, and compounds of interest. Plates are incubated in a 25° C. or 37° C. H2O bath and terminated via the addition of 40 μl/reaction of 0.5 M EDTA (pH 8) per well. Reactions are terminated within the time-frame during which substrate incorporation is linear and varied depending upon the enzyme and conditions used, i.e., 30 min. for HCMV polymerase. Ten (10) μl of streptavidin-SPA beads (20 mg/ml in PBS/10% glycerol) are added following termination of the reaction. Plates are incubated 10 min. at 37° C., then equilibrated to room temperature, and counted on a Packard Topcount. Linear regressions are performed and IC50's are calculated using computer software.
A modified version of the above HCMV polymerase assay is performed as described above, but with the following changes: Compounds are diluted in 100% DMSO until final dilution into assay buffer. In the previous assay, compounds are diluted in 50% DMSO. 4.5 mM Dithiothreitol (DTT) is added to the polymerase buffer.
All results are listed as Polymerase IC50 ([…]) values. In Table 1, the term “n.d.” refers to activity data not determined.

[1] = HCMV polymerase, SPA, read-out: Polymerase IC50 HCMV

T1 sequence (P08546 whole entry): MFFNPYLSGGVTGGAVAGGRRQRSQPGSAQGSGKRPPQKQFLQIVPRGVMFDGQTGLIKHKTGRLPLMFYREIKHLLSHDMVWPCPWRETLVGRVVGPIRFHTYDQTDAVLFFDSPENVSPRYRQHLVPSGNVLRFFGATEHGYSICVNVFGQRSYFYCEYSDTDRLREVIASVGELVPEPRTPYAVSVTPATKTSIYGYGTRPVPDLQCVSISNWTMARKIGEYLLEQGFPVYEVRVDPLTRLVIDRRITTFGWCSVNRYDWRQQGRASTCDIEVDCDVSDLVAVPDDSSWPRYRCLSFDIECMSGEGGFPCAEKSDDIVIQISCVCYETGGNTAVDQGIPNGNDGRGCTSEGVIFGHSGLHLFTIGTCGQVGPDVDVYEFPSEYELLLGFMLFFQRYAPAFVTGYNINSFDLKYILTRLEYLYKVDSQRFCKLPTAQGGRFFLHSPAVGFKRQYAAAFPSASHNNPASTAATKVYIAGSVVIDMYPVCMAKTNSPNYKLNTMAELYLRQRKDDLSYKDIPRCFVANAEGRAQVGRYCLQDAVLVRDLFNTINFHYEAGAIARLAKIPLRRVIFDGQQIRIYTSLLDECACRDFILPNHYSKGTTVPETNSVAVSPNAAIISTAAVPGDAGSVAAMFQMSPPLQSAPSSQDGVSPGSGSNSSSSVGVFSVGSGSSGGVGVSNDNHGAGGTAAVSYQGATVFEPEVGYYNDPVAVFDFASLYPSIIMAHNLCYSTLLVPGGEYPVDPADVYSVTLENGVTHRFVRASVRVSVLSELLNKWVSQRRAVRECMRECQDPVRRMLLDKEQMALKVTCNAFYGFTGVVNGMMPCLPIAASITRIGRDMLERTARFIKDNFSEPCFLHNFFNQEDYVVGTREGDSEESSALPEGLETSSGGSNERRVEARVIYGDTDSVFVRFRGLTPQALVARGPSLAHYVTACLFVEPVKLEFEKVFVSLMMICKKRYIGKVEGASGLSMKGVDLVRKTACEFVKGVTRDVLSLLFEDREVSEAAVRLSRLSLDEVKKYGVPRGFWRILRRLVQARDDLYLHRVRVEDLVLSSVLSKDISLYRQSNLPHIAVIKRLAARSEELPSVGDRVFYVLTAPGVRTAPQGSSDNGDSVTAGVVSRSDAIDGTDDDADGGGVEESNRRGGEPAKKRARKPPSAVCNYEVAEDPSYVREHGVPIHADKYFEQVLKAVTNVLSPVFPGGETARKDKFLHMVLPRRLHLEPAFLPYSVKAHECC
Chain of VZV polymerase (P09252 whole entry): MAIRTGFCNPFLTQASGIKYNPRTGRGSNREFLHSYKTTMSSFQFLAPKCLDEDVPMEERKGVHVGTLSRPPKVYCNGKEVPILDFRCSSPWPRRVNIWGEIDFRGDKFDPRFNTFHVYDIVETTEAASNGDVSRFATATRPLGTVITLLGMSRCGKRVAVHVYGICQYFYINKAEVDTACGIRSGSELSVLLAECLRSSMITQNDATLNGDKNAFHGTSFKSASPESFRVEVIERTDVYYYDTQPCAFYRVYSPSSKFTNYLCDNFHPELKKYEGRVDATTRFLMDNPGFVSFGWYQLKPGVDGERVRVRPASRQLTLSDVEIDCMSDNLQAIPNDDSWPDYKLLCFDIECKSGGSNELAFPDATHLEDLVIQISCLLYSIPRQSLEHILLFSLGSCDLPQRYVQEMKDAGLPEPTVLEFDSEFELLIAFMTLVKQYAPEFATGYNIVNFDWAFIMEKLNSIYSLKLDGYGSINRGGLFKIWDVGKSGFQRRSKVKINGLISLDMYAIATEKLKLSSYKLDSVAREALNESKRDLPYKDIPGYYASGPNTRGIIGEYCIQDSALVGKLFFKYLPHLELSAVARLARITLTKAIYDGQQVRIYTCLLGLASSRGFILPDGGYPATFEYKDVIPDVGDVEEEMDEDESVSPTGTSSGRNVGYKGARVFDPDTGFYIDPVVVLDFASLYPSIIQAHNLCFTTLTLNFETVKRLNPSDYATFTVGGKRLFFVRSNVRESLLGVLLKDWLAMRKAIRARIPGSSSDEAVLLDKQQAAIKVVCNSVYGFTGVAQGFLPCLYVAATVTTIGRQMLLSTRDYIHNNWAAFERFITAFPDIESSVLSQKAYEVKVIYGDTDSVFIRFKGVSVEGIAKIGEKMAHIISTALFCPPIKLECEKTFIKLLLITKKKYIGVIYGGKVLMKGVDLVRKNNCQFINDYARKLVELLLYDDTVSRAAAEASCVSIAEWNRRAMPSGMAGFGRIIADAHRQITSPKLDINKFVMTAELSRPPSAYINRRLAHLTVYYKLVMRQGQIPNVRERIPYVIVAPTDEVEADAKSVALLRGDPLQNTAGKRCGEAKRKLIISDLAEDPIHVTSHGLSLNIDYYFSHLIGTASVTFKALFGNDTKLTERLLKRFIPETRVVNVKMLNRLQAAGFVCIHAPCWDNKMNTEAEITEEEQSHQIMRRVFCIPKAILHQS
Chain of HSV polymerase (P04293 whole entry): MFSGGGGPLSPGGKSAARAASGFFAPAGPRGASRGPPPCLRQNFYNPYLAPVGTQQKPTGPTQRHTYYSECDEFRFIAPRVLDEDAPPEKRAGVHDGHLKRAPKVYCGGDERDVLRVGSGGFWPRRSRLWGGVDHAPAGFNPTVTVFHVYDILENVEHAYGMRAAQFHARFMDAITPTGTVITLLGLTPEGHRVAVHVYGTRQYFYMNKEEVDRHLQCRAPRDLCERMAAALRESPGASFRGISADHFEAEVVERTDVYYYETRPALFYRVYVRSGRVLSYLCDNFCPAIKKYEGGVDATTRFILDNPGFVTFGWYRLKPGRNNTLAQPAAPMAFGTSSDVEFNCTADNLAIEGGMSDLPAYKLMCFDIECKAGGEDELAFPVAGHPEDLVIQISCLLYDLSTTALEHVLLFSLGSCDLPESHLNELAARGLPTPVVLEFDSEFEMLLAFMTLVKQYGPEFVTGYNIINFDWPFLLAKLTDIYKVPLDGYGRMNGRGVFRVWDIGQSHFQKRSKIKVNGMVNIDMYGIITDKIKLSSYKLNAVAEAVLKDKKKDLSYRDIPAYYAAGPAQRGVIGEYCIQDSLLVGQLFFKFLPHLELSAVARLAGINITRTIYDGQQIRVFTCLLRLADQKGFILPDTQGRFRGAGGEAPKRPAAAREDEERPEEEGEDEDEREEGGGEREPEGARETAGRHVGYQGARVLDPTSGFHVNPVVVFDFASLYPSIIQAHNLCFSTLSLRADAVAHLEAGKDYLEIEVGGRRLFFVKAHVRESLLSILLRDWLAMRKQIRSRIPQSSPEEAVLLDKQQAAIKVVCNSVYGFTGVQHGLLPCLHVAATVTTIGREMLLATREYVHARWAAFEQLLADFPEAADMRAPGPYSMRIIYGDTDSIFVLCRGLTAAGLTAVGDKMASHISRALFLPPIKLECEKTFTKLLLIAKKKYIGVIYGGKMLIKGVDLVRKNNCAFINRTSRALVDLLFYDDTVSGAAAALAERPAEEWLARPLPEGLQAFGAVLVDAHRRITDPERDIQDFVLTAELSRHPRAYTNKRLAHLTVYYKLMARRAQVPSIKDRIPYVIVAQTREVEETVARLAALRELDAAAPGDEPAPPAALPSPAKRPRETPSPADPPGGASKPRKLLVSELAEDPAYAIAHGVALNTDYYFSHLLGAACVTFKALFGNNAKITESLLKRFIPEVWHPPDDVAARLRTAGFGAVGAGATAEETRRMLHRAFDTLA

SMILES | IC50 (VZV polymerase) | IC50 (HSV polymerase) | IC50 (HCMV polymerase; [1]) | melting point | IC50 (HCMV polymerase)
Cc1ccc(C(O)CN(C)Cc2cc3c(=O)c(C(=O)NCc4ccc(Cl)cc4)cn(C)c3s2)o1 (racemic) [Example 3, rac-N-(4-Chlorobenzyl)-2-(((2-hydroxy-2-(5-methyl-2-furyl)ethyl)(methyl)amino)methyl)-7-methyl-4-oxo-4,7-dihydrothieno[2,3-b]pyridine-5-carboxamide] | 130 nM | 260 nM | 70 nM | 137 to 140 °C | –
CN(Cc1cc2c(=O)c(C(=O)NCc3ccc(Cl)cc3)cn(C)c2s1)CC(O)c1ccoc1 (racemic) [Example 4, rac-N-(4-Chlorobenzyl)-2-(((2-(3-furyl)-2-hydroxyethyl)(methyl)amino)methyl)-7-methyl-4-oxo-4,7-dihydrothieno[2,3-b]pyridine-5-carboxamide] | 390 nM | 840 nM | 250 nM | 151 to 153 °C | –
CN(Cc1cc2c(=O)c(C(=O)NCc3ccc(Cl)cc3)cn(C)c2s1)CC(O)c1cc2ccccc2o1 (racemic) [Example 5, rac-2-(((2-(1-Benzofuran-2-yl)-2-hydroxyethyl)(methyl)amino)methyl)-N-(4-chlorobenzyl)-7-methyl-4-oxo-4,7-dihydrothieno[2,3-b]pyridine-5-carboxamide] | 10 nM | 30 nM | 10 nM | 212 to 214 °C | –
CN(Cc1cc2c(=O)c(C(=O)NCc3ccc(Cl)cc3)cn(C)c2s1)CC(O)c1ccc[nH]1 (racemic) [Example 7, rac-N-(4-Chlorobenzyl)-2-(((2-hydroxy-2-(1H-pyrrol-2-yl)ethyl)(methyl)amino)-methyl)-7-methyl-4-oxo-4,7-dihydrothieno[2,3-b]pyridine-5-carboxamide] | 330 nM | 980 nM | 300 nM | 169 to 172 °C (dec.) | –
CN(Cc1cc2c(=O)c(C(=O)NCc3ccc(Cl)cc3)cn(C)c2s1)CC(O)c1cccn1C (racemic) [Example 8, rac-N-(4-Chlorobenzyl)-2-(((2-hydroxy-2-(1-methyl-1H-pyrrol-2-yl)ethyl)-(methyl)amino)methyl)-7-methyl-4-oxo-4,7-dihydrothieno[2,3-b]pyridine-5-carboxamide] | 320 nM | 850 nM | 260 nM | 140 to 145 °C | –
CN(Cc1cc2c(=O)c(C(=O)NCc3ccc(Cl)cc3)cn(C)c2s1)CC(O)c1c[nH]cn1 (racemic) [Example 10, rac-N-(4-Chlorobenzyl)-2-(((2-hydroxy-2-(1H-imidazol-4-yl)ethyl)(methyl)amino)methyl)-7-methyl-4-oxo-4,7-dihydrothieno[2,3-b]pyridine-5-carboxamide] | 440 nM | 1970 nM | 450 nM | 164 to 169 °C | –
CN(Cc1cc2c(=O)c(C(=O)NCc3ccc(Cl)cc3)cn(C)c2s1)CC(O)c1c[nH]c2ccccc12 (racemic) [Example 11, rac-N-(4-Chlorobenzyl)-2-(((2-hydroxy-2-(1H-indol-3-yl)ethyl)(methyl)amino)-methyl)-7-methyl-4-oxo-4,7-dihydrothieno[2,3-b]pyridine-5-carboxamide] | 90 nM | 200 nM | 90 nM | 120 to 123 °C | –
CN(Cc1cc2c(=O)c(C(=O)NCc3ccc(Cl)cc3)cn(C)c2s1)CC(O)c1csc2ccccc12 (racemic) [Example 13, rac-2-(((2-(1-Benzothien-3-yl)-2-hydroxyethyl)(methyl)amino)methyl)-N-(4-chlorobenzyl)-7-methyl-4-oxo-4,7-dihydrothieno[2,3-b]pyridine-5-carboxamide] | 440 nM | 1920 nM | 170 nM | 213 to 219 °C (dec.) | –
CN(Cc1cc2c(=O)c(C(=O)NCc3ccc(Cl)cc3)cn(C)c2s1)CC(O)c1nccs1 (racemic) [Example 16, rac-N-(4-Chlorobenzyl)-2-(((2-hydroxy-2-(1,3-thiazol-2-yl)ethyl)(methyl)amino)-methyl)-7-methyl-4-oxo-4,7-dihydrothieno[2,3-b]pyridine-5-carboxamide] | 190 nM | 450 nM | – | 129 to 133 °C | 200 nM

Now from value to molecule, other results behind:

IC50 (VZV polymerase) | IC50 (HSV polymerase) | IC50 (HCMV polymerase; [1]) | melting point | SMILES | IC50 (HCMV polymerase)
120 nM | 530 nM | 100 nM | 128 to 132 °C (dec.) | CN(Cc1cc2c(=O)c(C(=O)NCc3ccc(Cl)cc3)cn(C)c2s1)CC(O)c1cc2ccccc2n1C (racemic) [Example 14, rac-N-(4-Chlorobenzyl)-2-(((2-hydroxy-2-(1-methyl-1H-indol-2-yl)ethyl)(methyl)-amino)methyl)-7-methyl-4-oxo-4,7-dihydrothieno[2,3-b]pyridine-5-carboxamide] | –
370 nM | 910 nM | 350 nM | 177.5 to 178.6 °C | CN(Cc1cc2c(=O)c(C(=O)NCc3ccc(Cl)cc3)cn(C)c2s1)CC(O)c1ccn[nH]1 (racemic) [Example 18, rac-N-(4-Chlorobenzyl)-2-(((2-hydroxy-2-(1H-pyrazol-5-yl)ethyl)(methyl)amino)-methyl)-7-methyl-4-oxo-4,7-dihydrothieno[2,3-b]pyridine-5-carboxamide] | –
– | – | 310 nM | 133 to 140 °C | COCCn1cc(C(=O)NCc2ccc(Cl)cc2)c(=O)c2cc(CN(C)CC(O)c3cc4ccccc4o3)sc21 (racemic) [Example 24, rac-2-(((2-(1-Benzofuran-2-yl)-2-hydroxyethyl)(methyl)amino)methyl)-N-(4-chlorobenzyl)-7-(2-methoxyethyl)-4-oxo-4,7-dihydrothieno[2,3-b]pyridine-5-carboxamide] | –
200 nM | 620 nM | 140 nM | 166 to 167 °C | Cc1cc(C(O)CN(C)Cc2cc3c(=O)c(C(=O)NCc4ccc(Cl)cc4)cn(C)c3s2)oc1C (racemic) [Example 30, rac-N-(4-Chlorobenzyl)-2-(((2-(4,5-dimethyl-2-furyl)-2-hydroxyethyl)(methyl)-amino)methyl)-7-methyl-4-oxo-4,7-dihydrothieno[2,3-b]pyridine-5-carboxamide] | –
60 nM | 120 nM | 70 nM | 177 to 178 °C | CN(Cc1cc2c(=O)c(C(=O)NCc3ccc(Cl)cc3)cn(C)c2s1)CC(O)c1ccc(-c2ccccc2)o1 (racemic) [Example 31, rac-N-(4-Chlorobenzyl)-2-(((2-(5-phenyl-2-furyl)-2-hydroxyethyl)(methyl)-amino)methyl)-7-methyl-4-oxo-4,7-dihydrothieno[2,3-b]pyridine-5-carboxamide] | –
– | – | 830 nM | 177.9 to 179.5 °C | CN(Cc1cc2c(=O)c(C(=O)NCc3ccc(Cl)cc3)cn(C)c2s1)CC(O)c1ncc[nH]1 (racemic) [Example 36, rac-N-(4-Chlorobenzyl)-2-(((2-hydroxy-2-(1H-imidazol-2-yl)ethyl)(methyl)-amino)methyl)-7-methyl-4-oxo-4,7-dihydrothieno[2,3-b]pyridine-5-carboxamide] | –
200 nM | 460 nM | 220 nM | 123 to 127 °C | CCn1cc(C(=O)NCc2ccc(Cl)cc2)c(=O)c2cc(CN(C)C[C@@H](O)c3ccco3)sc21 [Example 20, N-(4-Chlorobenzyl)-7-ethyl-2-((((2R)-2-(2-furyl)-2-hydroxyethyl)(methyl)amino)-methyl)-4-oxo-4,7-dihydrothieno [2,3-b]pyridine-5-carboxamide] | –
